≈ marks a conversion by molar mass, not a printed value.
Legend:
[1] = Cytotoxicity against human HepG2 cells after 72 hrs by sulforhodamine-B assay; type: functional, cell-based; conditions: HepG2, 72 h
[2] = Cytotoxicity against human HeLa cells measured after 3 days by MTT assay; type: functional; conditions: 72 h
[3] = Cytotoxicity against human A549 cells measured after 3 days by MTT assay; type: functional; conditions: A549, 72 h
[4] = Cytotoxicity against human Calu1 cells by sulforhodamine-B assay; type: functional, cell-based; conditions: Calu-1
[5] = Cytotoxicity against human NCI-H157 cells by sulforhodamine-B assay; type: functional, cell-based
[6] = Cytotoxicity against human A549 cells by sulforhodamine-B assay; type: functional, cell-based
[7] = Cytotoxicity against human MCF7 cells measured after 3 days by MTT assay; type: functional; conditions: MCF7, 72 h
[8] = Cytotoxicity against human HeLa cells measured after 24 hrs by MTT assay; type: functional, cell-based
[9] = biological target: cGMP-inhibited 3',5'-cyclic phosphodiesterase 3A (Homo sapiens, UniProt Q14432); assay: Inhibition of human PDE3A using fluorescein-labelled cAMP as substrate measured after 60 mins by IMAP TR-FRET assay
Chain of cGMP-inhibited 3',5'-cyclic phosphodiesterase 3A (Q14432 whole entry): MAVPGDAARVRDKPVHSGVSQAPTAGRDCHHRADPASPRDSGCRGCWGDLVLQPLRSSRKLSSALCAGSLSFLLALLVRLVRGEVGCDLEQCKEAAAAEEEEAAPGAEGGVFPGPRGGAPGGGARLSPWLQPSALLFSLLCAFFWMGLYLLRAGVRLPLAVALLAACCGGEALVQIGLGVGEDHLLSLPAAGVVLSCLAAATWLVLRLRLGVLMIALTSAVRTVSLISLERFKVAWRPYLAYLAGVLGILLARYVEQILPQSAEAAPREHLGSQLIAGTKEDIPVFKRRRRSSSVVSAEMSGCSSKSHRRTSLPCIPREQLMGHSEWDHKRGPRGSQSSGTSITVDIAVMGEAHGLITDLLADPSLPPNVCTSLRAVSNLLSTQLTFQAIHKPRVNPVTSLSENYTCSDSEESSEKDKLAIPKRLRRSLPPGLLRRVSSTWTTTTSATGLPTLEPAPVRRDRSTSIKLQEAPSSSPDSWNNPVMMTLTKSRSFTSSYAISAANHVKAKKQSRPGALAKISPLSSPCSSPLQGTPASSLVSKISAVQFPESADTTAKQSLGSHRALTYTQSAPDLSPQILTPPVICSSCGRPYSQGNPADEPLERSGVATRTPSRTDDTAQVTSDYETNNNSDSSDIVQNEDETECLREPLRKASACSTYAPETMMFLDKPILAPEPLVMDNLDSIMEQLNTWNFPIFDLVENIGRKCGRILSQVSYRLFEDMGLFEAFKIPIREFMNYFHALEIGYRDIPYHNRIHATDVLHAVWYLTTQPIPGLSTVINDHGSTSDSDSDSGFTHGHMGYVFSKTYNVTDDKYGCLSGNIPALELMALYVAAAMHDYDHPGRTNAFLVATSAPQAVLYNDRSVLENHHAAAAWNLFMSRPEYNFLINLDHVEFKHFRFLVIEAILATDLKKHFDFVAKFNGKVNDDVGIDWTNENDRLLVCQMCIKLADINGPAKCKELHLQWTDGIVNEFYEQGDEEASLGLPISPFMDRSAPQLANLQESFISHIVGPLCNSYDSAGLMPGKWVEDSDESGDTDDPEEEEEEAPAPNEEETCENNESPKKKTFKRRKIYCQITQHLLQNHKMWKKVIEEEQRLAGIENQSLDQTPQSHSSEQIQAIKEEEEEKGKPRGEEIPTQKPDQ

[10] = Cytotoxicity against human MCF7 cells measured after 24 hrs by MTT assay; type: functional, cell-based; conditions: MCF7, 24 h
[11] = Cytotoxicity against human MCF7 cells by MTT assay; type: functional, cell-based
[12] = Cytotoxicity against human DU145 cells by MTT assay; type: functional, cell-based; conditions: DU-145
[13] = Cytotoxicity against human MDA-MB-231 cells by MTT assay; type: functional, cell-based
[14] = Cytotoxicity against human PC3 cells by MTT assay; type: functional, cell-based; conditions: PC-3

COC(=O)c1ccccc1-n1c(N)c(C(N)=O)c(-c2ccc(N(C)C)cc2)cc1=O
IC50 [1]: 1.34 µM

CC(C)NC(=O)c1cccc2c(Cc3ccc(C(=O)O)cc3)c3ccccc3nc12
CC50 [2]: 47.5 µg/mL (≈ 119 µM)

CC(C)NC(=O)c1cccc2c(Cc3cccc(Cl)c3)c3ccccc3nc12
CC50 [3]: 100 µg/mL (≈ 257 µM)

Cc1onc(-c2ccc([N+](=O)[O-])cc2)c1C(=O)/C=C/c1ccccc1Cl
IC50 [4]: 2.07 µM
IC50 [5]: 1.35 µM

COC(=O)c1ccccc1-n1c(N)c(C#N)c(-c2ccc(N(C)C)cc2)cc1=O
IC50 [1]: 0.02 µM

Cc1onc(-c2ccc([N+](=O)[O-])cc2)c1C(=O)/C=C/c1ccccc1Br
IC50 [6]: 11.1 µM
IC50 [5]: 7.27 µM

Cc1ccc2nc3ccccc3c(Nc3cccc(Cl)c3)c2c1
CC50 [7]: 212 µg/mL (≈ 667 µM)
CC50 [3]: 188 µg/mL (≈ 588 µM)

CCSc1ncc(-c2cc(-c3ccc(Br)cc3)[nH]c(=N)c2C#N)n1Cc1ccccc1
IC50 [8]: 34.3 µM
IC50 [9]: 0.00376 µM
IC50 [10]: 50.2 µM

Clc1cccc(Cl)c1C1=NO[C@@]2(CCCCO2)[C@H]1Br
IC50 [11]: 43 to 56 µM
IC50 [12]: 43 to 56 µM
IC50 [13]: 43 to 56 µM
IC50 [14]: 43 to 56 µM

Clc1ccc(C2=NO[C@@]3(CCCCO3)[C@H]2Br)cc1
IC50 [11]: 43 to 56 µM
IC50 [12]: 43 to 56 µM
IC50 [13]: 43 to 56 µM
IC50 [14]: 43 to 56 µM

From ChEMBL document CHEMBL3877255, “Structure-activity relationship (SAR) study and design strategies of nitrogen-containing heterocyclic moieties for their anticancer activities” (Eur J Med Chem, 2017)
